{
  "source": "paper PMC10522709",
  "about": "“Rational design and characterization of cell-selective antimicrobial peptides based on a bioactive peptide from Crocodylus siamensis hemoglobin” (Scientific Reports, 2023)",
  "key": {"[1]": {"system": "human keratinocyte cells (HaCaT)", "type": "cell-based", "details": "24 h", "method": "(§1) Human peripheral blood mononuclear cells (PBMC), African green monkey kidney cells (Vero), human keratinocyte cells (HaCaT) and mouse preadipocytes (3T3-L1) were used to evaluate the cytotoxicity of peptides by the MTT assay. PBMCs were isolated using Ficoll medium (GE Healthcare, Uppsala, Sweden) as described by Jangpromma et al.[28]. The PBMCs were then cultured in RPMI 1640, while Vero, HaCaT and 3T3-L1 cells were cultured in DMEM. All culture mediums were supplemented with 10% heat-inactivated fetal bovine serum (FBS) and 1% antibiotic:antimycotic (Gibco, USA). The cells were cultured at 37 °C with 5% CO2/95% relative humidity. After that, PBMC (2 × 10^6 cells/well), Vero (1 × 10^4 cells/well), HaCaT (1 × 10^4 cells/well) and 3T3-L1 (1 × 10^4 cells/well) were individually seeded into 96-well plate and cultured at 37 °C overnight. Next, two-fold serially diluted peptides (3.13–200 μg/mL) were added to the cell culture. After incubation in 5% (v/v) CO2 incubator for 24 h, the medium culture was removed and MTT solution ([…] final concentration in fresh medium culture) was added to the cells and incubated for 30 min. Thereafter, the medium was removed and DMSO (100 µL) was added to each well to dissolve the formazan crystals. The optical density at 570 nm was determined using a microplate reader (ALLSHENG, Zhejiang, China). The cytotoxicity of IL15.3 against Vero, HaCaT and 3T3-L1 cells in the absence of FBS was also measured by the MTT assay to confirm the peptide is not sequestered by proteins in the serum causing artificially low cytotoxicity against eukaryotic cells.\n(§2) Cell viability was determined using the equation: %cellviability=OD570ofsample/OD570ofuntreatedcontrol×100\n(§3) GraphPad Prism8 (San Diego, CA, USA) was used to calculate IC50 values using a non-linear regression model."}, "[2]": {"system": "human peripheral blood mononuclear cells (PBMC)", "type": "cell-based", "details": "24 h", "method": "as §1, §2, §3"}},
  "note": "Ends that are not written are not given here.",
  "data": [
    {"sequence": "IKHWKKVWKHAKKVL [IL15.3]", "values": [
      {"measurement": "IC50 HaCaT", "setting": "[1]", "result": ">200", "unit": "µg/mL"},
      {"measurement": "IC50 PBMC", "setting": "[2]", "result": ">200", "unit": "µg/mL"}
    ]}
  ]
}
